Laboratory results published in patent publication US20240238281A1, “PIPERAZINE DERIVATIVES AND APPLICATION THEREOF” (priority 2021, published 2024).
Like-named read-outs stand apart in the source and are kept apart here.

Legend:
[1] = Pharmacokinetic parameters in rat plasma; assay type: in vivo, SD rats; settings: SD
Protocol: 4 healthy SD rats of 6-9 weeks old were selected and randomly divided into two groups, 2 rats in each group. One group was administered with the test compound via intravenous injection, with 5% DMSO+95% (a 10% HP-β-CD aqueous solution) as a solvent, and the other group was administered with the test compound by gavage, with a 50 mM citric acid buffer solution at pH=5 as a solvent. Plasma samples were collected from animals in both intravenous and intragastric groups at 0.083 hour, 0.25 hour, 0.5 hour, 1.0 hour, 2.0 hours, 4.0 hours, 6.0 hours, 8.0 hours and 24 hours after administration, respectively. Quantitative analysis of all biological samples was performed using an LC-MS/MS method, with WinNonlin™ Version 6.3 (Pharsight, Mountain View, CA) pharmacokinetic software, to calculate relevant pharmacokinetic parameters using a […] model linear logarithmic trapezoid method. AUCo-last represented an area under a plasma concentration time curve from a time point zero to a last time point where the concentration can be detected; p.o. represented oral administration; i.v. represented intravenous injection; T1/2 represented the half life; CL represented the clearance rate; Vd represented the apparent distribution volume; AUC0-last represented the area under the curve; Cmax represented the peak concentration; Tmax represented the peak time; and F % represented oral bioavailability.

MC3R = target: T1, MC3R (Homo sapiens, UniProt P41968); test: In vitro activity of MCR receptors, intracellular cAMP signal (HEK293T/MCR cell line), MC3R; assay type: cell-based
T1 construct: expressed in transfected cells
Protocol: (§1) Test purpose: to evaluate the agonistic effect of the compound on MCRs by detecting intracellular cAMP signal changes.
(§2) Cells were resuspended with 1×PBS+500 μM IBMX. 10 μL of the cell suspension was added into a 384-well plate to be tested, and the cell concentration was adjusted to 1×10^4 cells per well for later use. A pre-prepared solution of the compound to be tested was added, and dimethyl sulfoxide of the same volume was added to blank control wells. The test plate was centrifuged at 300 rpm for 1 minute, incubated at 37° C. for 30 minutes, and added with 5 μL of cAMP-d2 and 5 μL of a CAMP-cry antibody detection reagent. The test plate was centrifuged at 300 rpm for 1 minute, and incubated at room temperature for 60 minutes.

[2] = Drug concentration in brain tissues of rats, oral gavage; assay type: in vivo; settings: SD, rat, p.o. 20 mg/kg
Protocol: 3.2 6 healthy SD rats of 6-9 weeks old were selected, and the test compound was administered by oral gavage (with a solvent of 50 mM citrate buffer solution, pH=5). Two animals were randomly selected at 0.5 hour, 1 hour and 4 hours after administration respectively, and plasma and brain tissue samples were collected for quantitative analysis of all biological samples using the LC-MS/MS method.

[3] = Drug concentration in brain tissues of rats, intravenous injection; assay type: in vivo, SD rats; settings: rat, i.v. 2 mg/kg
Protocol: 3.1 6 healthy SD rats of 6-9 weeks old were selected, and the test compound was administered via intravenous injection. Two animals were randomly selected at 0.5 hour, 2 hours and 4 hours after administration respectively, and plasma and brain tissue samples were collected, and the quantitative assay of all biological samples was performed using the LC-MS/MS method.

MC5R = target: T2, MC5R (Homo sapiens, UniProt P33032); test: In vitro activity of MCR receptors, intracellular cAMP signal (HEK293T/MCR cell line), MC5R; assay type: cell-based; settings: cAMP, HEK293T/MCR cell line; read-out: MC5R EC50
T2 construct: expressed in transfected cells
Protocol: as §1
as §2, with “minutes. The test plate was placed in the Envision multifunctional microplate reader for reading, with a detection wavelength of 665/615 nm.” for “minutes.”

MC1R = target: T3, MC1R (Homo sapiens, UniProt Q01726); test: In vitro activity of MCR receptors, intracellular cAMP signal (HEK293T/MCR cell line), MC1R; assay type: cell-based; settings: cAMP, HEK293T/MCR cell line; read-out: MC1R EC50
T3 construct: expressed in transfected cells
Protocol: as §1, §2

MC4R = target: T4, MC4R (Homo sapiens, UniProt P32245); test: In vitro activity of MCR receptors, intracellular cAMP signal (HEK293T/MCR cell line), MC4R; assay type: cell-based; settings: cAMP, HEK293T/MCR cell line; read-out: MC4R EC50
T4 construct: expressed in transfected cells
Protocol: as §1
as §2, with “minutes. The test plate was placed in the Envision multifunctional microplate reader for reading, with a detection wavelength of 665/615 nm.” for “minutes.”

T2 sequence (P33032 whole entry): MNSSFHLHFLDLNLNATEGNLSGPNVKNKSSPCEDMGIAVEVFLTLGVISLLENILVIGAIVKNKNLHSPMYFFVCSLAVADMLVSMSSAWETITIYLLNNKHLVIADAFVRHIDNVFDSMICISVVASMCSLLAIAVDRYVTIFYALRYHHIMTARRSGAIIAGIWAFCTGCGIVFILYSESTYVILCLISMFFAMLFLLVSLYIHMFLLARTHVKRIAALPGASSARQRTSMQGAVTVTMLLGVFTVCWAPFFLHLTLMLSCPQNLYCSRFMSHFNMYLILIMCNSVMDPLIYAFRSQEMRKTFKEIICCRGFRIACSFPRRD
T4 sequence (P32245 whole entry): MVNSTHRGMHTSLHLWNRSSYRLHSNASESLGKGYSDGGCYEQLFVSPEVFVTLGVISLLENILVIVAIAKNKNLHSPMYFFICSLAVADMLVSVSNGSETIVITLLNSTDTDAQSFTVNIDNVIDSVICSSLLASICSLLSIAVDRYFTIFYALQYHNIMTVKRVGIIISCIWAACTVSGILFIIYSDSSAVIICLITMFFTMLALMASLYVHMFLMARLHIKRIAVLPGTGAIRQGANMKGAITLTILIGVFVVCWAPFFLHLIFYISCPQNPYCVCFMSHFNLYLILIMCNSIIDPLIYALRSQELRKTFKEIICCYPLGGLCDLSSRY
T1 sequence (P41968 whole entry): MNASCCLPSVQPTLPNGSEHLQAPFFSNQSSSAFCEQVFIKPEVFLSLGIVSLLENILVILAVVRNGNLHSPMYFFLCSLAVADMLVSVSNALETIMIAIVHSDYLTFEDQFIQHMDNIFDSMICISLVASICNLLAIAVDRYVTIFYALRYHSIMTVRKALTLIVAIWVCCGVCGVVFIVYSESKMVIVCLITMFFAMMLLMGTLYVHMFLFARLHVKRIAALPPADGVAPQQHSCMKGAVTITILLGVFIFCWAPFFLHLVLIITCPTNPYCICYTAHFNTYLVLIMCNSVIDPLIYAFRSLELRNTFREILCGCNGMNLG
T3 sequence (Q01726 whole entry): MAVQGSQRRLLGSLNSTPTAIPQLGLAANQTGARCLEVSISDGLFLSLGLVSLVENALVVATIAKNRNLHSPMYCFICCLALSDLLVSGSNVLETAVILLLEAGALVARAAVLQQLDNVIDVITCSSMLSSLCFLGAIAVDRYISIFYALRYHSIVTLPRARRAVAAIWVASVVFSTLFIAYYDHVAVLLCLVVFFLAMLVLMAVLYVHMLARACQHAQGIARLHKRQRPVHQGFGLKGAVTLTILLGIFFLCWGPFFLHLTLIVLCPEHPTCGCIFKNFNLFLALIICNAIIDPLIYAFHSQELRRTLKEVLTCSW

## C[C@@H]1CN(C(=O)[C@@H]2CN(C3CCOCC3)C[C@H]2c2ccc(F)cc2F)C[C@H](C)N1c1ccc(F)cc1 (single isomer, unassigned) [Compound 7]
[1]; iv, i.v. 2 mg/kg
  AUC(0-t): 0.897 µM·h
  Vd: 8 L/kg
  clearance: 73 mL/min/kg
  half-life: 1.5 h
[1]; p.o. 5 mg/kg, oral bioavailability
  bioavailability: 37%
[1]; po, p.o. 5 mg/kg
  AUC(0-t): 0.796 µM·h
  Cmax: 195 nM
  Tmax: 1 h
MC3R
  EC50: 4220 nM
[2]; brain, 0.5 hour, read-out: Brain drug concentration
  concentration at 0.5 h: 8600 nM
[2]; brain, 1 hour, read-out: Brain drug concentration
  concentration at 1 h: 9680 nM
[2]; brain, 4 hours, read-out: Brain drug concentration
  concentration at 4 h: 11400 nM
[2]; brain/plasma, 0.5 hour
  Kp uu at 0.5 h: 1.5
[2]; brain/plasma, 0.5 hour, read-out: Brain-to-blood ratio
  Kp at 0.5 h: 11
[2]; brain/plasma, 1 hour
  Kp uu at 1 h: 1.5
[2]; brain/plasma, 1 hour, read-out: Brain-to-blood ratio
  Kp at 1 h: 10.8
[2]; brain/plasma, 4 hours
  Kp uu at 4 h: 1.3
[2]; brain/plasma, 4 hours, read-out: Brain-to-blood ratio
  Kp at 4 h: 9.5
[2]; plasma, 0.5 hour, read-out: Plasma drug concentration
  concentration at 0.5 h: 783 nM
[2]; plasma, 1 hour, read-out: Plasma drug concentration
  concentration at 1 h: 899 nM
[2]; plasma, 4 hours, read-out: Plasma drug concentration
  concentration at 4 h: 1200 nM
[3]; SD, brain, iv, 0.5 hour, read-out: Brain drug concentration
  concentration at 0.5 h: 2830 nM
[3]; SD, brain, iv, 2 hours, read-out: Brain drug concentration
  concentration at 2 h: 965 nM
[3]; SD, brain/plasma, iv, 0.5 hour, read-out: Brain-to-blood ratio
  Kp at 0.5 h: 7.8
[3]; SD, brain/plasma, iv, 2 hours, read-out: Brain-to-blood ratio
  Kp at 2 h: 6.9
[3]; SD, plasma, iv, 0.5 hour, read-out: Plasma drug concentration
  concentration at 0.5 h: 362 nM
[3]; SD, plasma, iv, 2 hours, read-out: Plasma drug concentration
  concentration at 2 h: 141 nM
[3]; 4 hours
  Brain drug concentration (nmol/L): BQL
  Plasma drug concentration (nmol/L): BQL
MC5R
  EC50: > 10000 nM
MC1R
  EC50: 459 nM
MC4R
  EC50: 12 nM
